According to patent US6177592A, “Compounds” (priority 1997, dated 2001):
“Also recorded” adds a separate entry of the source.

Columns and labels:
HL-60 cells [1] = experiment: MTT growth inhibition of HL-60; type: cell-based, human; conditions: Homo sapiens, HL-60, 48 hours; for activity at 10 µM / activity at 20 µM / activity at 40 µM: read-out: degree of cell growth (ratio of absorbance at 590 nm of sample-added section to control)
Experimental: (§1) (2) To each of the wells of a 96-well microtiter plate was added 8, 40, 200 or 1000 μM aqueous solution of GM or 10 μl of water as a control. HL-60 (ATCC CCL-240) was suspended in an RPMI 1640 medium containing 10% of fetal calf serum to make the concentration 5×10^4 cells/ml and each 90 μl thereof was placed in each well of the above-mentioned microtiter plate and incubated at 37° C. for 48 hours in the presence of 5% carbon dioxide. Incubation was conducted for four hours more after addition of 10 μl of a solution (5 mg/ml) of 3-(4,5-dimethylthiazol-2-yl)-2,5-diphenyltetrzolium bromide (MTT; manufactured by Sigma) in a phosphate-buffered saline solution and the state of growth of the cells was observed under a microscope. Further, 100 μl of 2-propanol containing 0.04N hydrochloric acid was added followed by stirring and an absorbance at 590 nm was measured.
(3) To each well of the 96-well microtiter plate was added 100, 200 or 400 μM aqueous solution of GM or CM or 10 μl of water as a control and the inhibition activity of growth of HL-60 was measured by the same method as mentioned in Example 5-(2). The degree of cell growth was, however, expressed in terms of the ratio (%) of the absorbance at 590 nm of the sample-added section to that of the water-added section (the control).
(§2) (5) To each well of the 96-well microtiter plate was added 4.12, 12.3, 37.0, 111, 333 or 1000 μM aqueous solution of GD or 10 μl of water as a control. HL-60 (ATCC CCL-240) was suspended in an RPMI 1640 medium containing 10% of fetal calf serum to make the concentration 5×10^4 cells/ml and each 90 μl thereof was placed in each well of the above-mentioned microtiter plate followed by incubating at 37° C. for 48 hours in the presence of 5% carbon dioxide gas. The incubation was conducted for four hours more after addition of 10 μl of 5 mg/ml solution of 3-(4,5-dimethylthiazol-2-yl)-2,5-diphenyltetrazolium bromide (MTT; manufactured by Sigma) in a phosphate-buffered saline solution and the state of growth of the cells was observed under a microscope. In the meanwhile, 100 μl of 2-propanol containing 0.04N HCl was added followed by well stirring and the absorbance at 590 nm was measured.
(6) Cyclopentenone and L-cysteine hydrochloride were dissolved in a phosphate buffered saline solution (pH 7.2) to make their concentrations 55 mM and 80 mM, respectively and made to react at 37° C. for 15 minutes at pH 7.2. Apart of the reaction solution was analyzed by a reversed phase HPLC using a column of TSK gel ODS-80Ts (4.6 mm×250 mm; manufactured by Tosoh)at the flow rate of 1 ml/minute using 0.1% aqueous solution of trifluoroacetic acid as a mobile phase whereupon no cyclopentenone was detected. This reaction solution was a solution containing 55 mM of CD.
Degree of cell growth was, however, expressed in terms of the ratio (%) of the absorbance at 590 nm of the section to which the sample was added to that of the control where water was added.

HL-60 cells [2] = experiment: Apoptosis in HL-60 cells (apoptic bodies, DNA fragmentation); type: cell-based, human; conditions: for apoptic bodies in the cells: at each of the cell-growth-inhibiting concentrations
Experimental: (1) Each 0.5 ml of 0.2 mM CM, 0.8 mM CM or 1.6 mM CM was added to 4.5 ml of RPMI 1640 medium containing 10% of fetal calf serum and 2.5×10^5HL-60 cells (promyelocytic leukemia cell) (ATCC CCL-240) and incubated at 37° C. for 24 hours or 48 hours in the presence of 5% carbon dioxide gas and the numbers of viable cells were measured.
as §1
(4) HL-60 cells (ATCC CCL240) which were incubated at 37° C. in an RPMI 1640 medium (manufactured by Nissui) containing 10% of fetal calf serum (manufactured by Gibco) treated at 56° C. for 30 minutes were suspended in the above medium to make the concentration 2.5×10^5cells/4.5 ml. To this suspension was added 0.5 ml of 100 μM aqueous solution of GM (final concentration: 10 μM) followed by incubating at 37° C. in the presence of 5% carbon dioxide gas for 24 hours, 48 hours and 72 hours.
as §2

mouse leukemia P-388 = experiment: Mouse leukemia P-388 survival (macrobiotic effect) in DBA/2 mice; type: in vivo; conditions: 10 mg/kg/day i.p., five days
Experimental: GM was diluted with a physiological saline solution to a predetermined concentration and subjected to the following tests.
(2) Mouse leukemia P-388 (1.1×10^6 cells/mouse) was intraperitoneally injected to female DBA/2 mice (body weight: about 20 g) of seven weeks age. After that, GM, CM, GD or CD (10 mg/kg/day) was intraperitoneally injected for consecutive five clays. In the meanwhile, a physiological saline solution was intraperitoneally injected to the control group by the same manner. In the two group each consisting of eight mice, survived numbers, average survived days and macrobiotic rate of the mice were calculated.

Sarcoma-180 = experiment: Sarcoma-180/ICR mice macrobiotic effect; type: in vivo
IMC = experiment: IMC/CDF1 mice macrobiotic effect; type: in vivo
[3] = Blood sugar, insulin and lipid in KK-Ay mice; type: in vivo, mouse (KK-A^y)
Experimental: KK-A^y Mice (male; four weeks age) were purchased from Clea Japan and, after breeding at our end until ten weeks age, GM was orally administered for 21 days and its influence on sugar, insulin and lipid in blood was investigated. Doses of GM were 30, 100 and 300 mg/kg.
Incidentally, the animals were grouped into four (each group consisting of ten animals) and the four groups were administered with physiological saline solution (5 ml/kg) or 30, 100 or 300 mg/5 ml/kg of GM. Each test substance was orally administered once daily for 21 days and, on the final day of administration, the animals were anesthetized with ether after four hours from the administration of the test substance and blood was collected from artery of lower abdomen. Insulin in serum was measured by an enzyme-immunoassay (commercially available kit: Glazym Insulin-EIATEST,manufactured by Wako Pure Chemicals). Sugar, triglycerides and free fatty acids in serum were measured using an automatic analyzer (type 7070, manufactured by Hitachi) by a hexonase-G6PDH method, a GPO.cndot.DAOS method and an ACS.cndot.ACOD method, respectively. Total cholesterol in serum was measured using an automatic analyzer (type 7070, manufactured by Hitachi) by a cholesterol-oxidase, DAOS method.

[4] = 30, 100, 300 mg/kg oral, 21 days

Compound	activity at 10 µM (HL-60 cells [1])	activity at 20 µM (HL-60 cells [1])	activity at 40 µM (HL-60 cells [1])	apoptic bodies in the cells (HL-60 cells [2])	macrobiotic effect (average survived days) (mouse leukemia P-388)	macrobiotic effect (Sarcoma-180)	macrobiotic effect (IMC)	triglycerides in serum [3, 4]	IC100 (HL-60 cells [1]; MTT, final concentration, read-out: concentration at which growth of HL-60 cells was completely inhibited)	fragmentation of DNA into a chromatin unit (HL-60 cells [2]; 10 μM GM, agarose gel electrophoresis)	blood sugar [3, 4]	free fatty acids in serum [3, 4]	insulin in serum [3, 4]	total cholesterol in serum [3, 4]	effect of lowering blood sugar, insulin and lipid ([3]; Example 13, summary)
N[C@@H](CSC1C=C(O)C(=O)C1)C(=O)O (stereo partly shown) [CM]	48.9%	16.1%	2.8%	apoptic bodies were detected	significant macrobiotic effect	same macrobiotic effect	same macrobiotic effect	decreased	–	–	–	–	–	–	–
N[C@@H](CCC(=O)N[C@@H](CSC1C=C(O)C(=O)C1)C(=O)NCC(=O)O)C(=O)O (stereo partly shown) [GM, 2-hydroxy-4-glutathion-S-yl-2-cyclopenten-1-one]	14.8%	1.8%	3.2%	apoptic bodies were formed in the cells; also recorded: aggregation of nuclei, reduction in size of the cells and production of apoptic bodies were detected	significant macrobiotic effect	same macrobiotic effect	same macrobiotic effect	–	4 µM	fragmentation of DNA into a chromatin unit was observed	decreased in each of the groups administered with GM	decreased	decreased in each of the groups administered with GM	de creased	effect of lowering blood sugar, insulin and lipid
